# Patent publication US20110224210A1, “NOVEL BIS-AMIDES AS ANTI-MALARIAL AGENTS” (priority 2008, published 2011)
# Test system: P. falciparum K1 (strain resistant to chloroquine and pyrimethamine), erythrocytic stages
# Assay: Plasmodium falciparum in vitro assay, [3H] hypoxanthine incorporation
# Assay type: cell-based
# Settings: Plasmodium falciparum, K1, P. falciparum strain K1; [3H] hypoxanthine incorporation; read-out: IC50 (nM) on K1
# Protocol: In Vitro Antimalarial Activity: Plasmodium falciparum In Vitro Assay
# In vitro activity against erythrocytic stages of P. falciparum is determined using a [^3H] hypoxanthine incorporation assay. One strain resistant to chloroquine and pyrimethamine (P. falciparum K1) is used in the assays, and all test compounds are compared for activity with the standard drugs chloroquine (sigma C6628) and artemisinin (sigma-36, 159-3). Compounds are diluted in DMSO to 1 mM and added to parasite cultures incubated in RPMI 1640 medium without hypoxanthine, supplemented with HEPES (5.94 g/L), NaHCO3 (2.1 g/L), neomycin (100 U/mL), Albumax (5 g/L) and washed human red cells at 2.5% haematocrit (0.3% parasitaemia). Seven serial doubling dilutions of each compound are prepared in 96-well microtitre plates and incubated in a humidifying atmosphere at 37° C.; 4% CO2, 3% O2, 93% N2.
# After 48 h, 50 μl of [3H] hypoxanthine (0.5 μCi) is added to each well of a plate. The plates are incubated for a further 24 h under the same conditions. The plates are then harvested with a Betaplate cell harvester (Wallac) and washed with distilled water. The dried filters are inserted into a plastic foil with 10 mL of scintillation fluid, and counted in a Betaplate liquid scintillation counter. IC50 values are calculated from sigmoidal inhibition curves using Microsoft Excel.
row,IC50,SMILES
1,413 nM,CN(C)C1CCN(C(=O)C(Cc2cnn(C)c2)N(Cc2ccc(-c3ccccn3)cc2)C(=O)C=Cc2ccc(C(F)(F)F)cc2)CC1 (racemic) [Example 137]
2,340 nM,CN(C)C1CCN(C(=O)C(Cc2ccn(C)n2)N(Cc2ccc(-c3ccccn3)cc2)C(=O)C=Cc2ccc(C(F)(F)F)cc2)CC1 (racemic) [Example 138]
3,155 nM,CN(C)C1CCN(C(=O)C(Cc2cnn(C)c2)N(Cc2ccc(-c3ccncc3)cc2)C(=O)C=Cc2ccc(C(F)(F)F)cc2)CC1 (racemic) [Example 139]
4,191 nM,CN(C)C1CCN(C(=O)C(Cc2ccn(C)n2)N(Cc2ccc(-c3ccncc3)cc2)C(=O)C=Cc2ccc(C(F)(F)F)cc2)CC1 (racemic) [Example 140]
5,339 nM,CN(C)C1CCN(C(=O)C(Cc2ccnn2C)N(Cc2ccc(-c3ccncc3)cc2)C(=O)C=Cc2ccc(C(F)(F)F)cc2)CC1 (racemic) [Example 141]
6,460 nM,CN(C)C1CCN(C(=O)C(Cc2ccnn2C)N(Cc2ccc(-c3ccccn3)cc2)C(=O)C=Cc2ccc(C(F)(F)F)cc2)CC1 (racemic) [Example 142]
7,247 nM,COCCN(C)C(=O)C(Cc1cnn(C)c1)N(Cc1ccc(-c2ccccn2)cc1)C(=O)C=Cc1ccc(C(F)(F)F)cc1 (racemic) [Example 164]
8,76 nM,COCCN(C)C(=O)C(Cc1ccn(C)n1)N(Cc1ccc(-c2ccccn2)cc1)C(=O)C=Cc1ccc(C(F)(F)F)cc1 (racemic) [Example 165]
9,96 nM,COCCN(C)C(=O)C(Cc1cnn(C)c1)N(Cc1ccc(-c2ccncc2)cc1)C(=O)C=Cc1ccc(C(F)(F)F)cc1 (racemic) [Example 166]
10,41 nM,COCCN(C)C(=O)C(Cc1ccn(C)n1)N(Cc1ccc(-c2ccncc2)cc1)C(=O)C=Cc1ccc(C(F)(F)F)cc1 (racemic) [Example 167]
11,349 nM,COCCN(C)C(=O)C(Cc1ccnn1C)N(Cc1ccc(-c2ccncc2)cc1)C(=O)C=Cc1ccc(C(F)(F)F)cc1 (racemic) [Example 168]
12,312 nM,COCCN(C)C(=O)C(Cc1ccon1)N(Cc1ccc(-c2ccncc2)cc1)C(=O)C=Cc1ccc(C(F)(F)F)cc1 (racemic) [Example 169]
13,192 nM,COCCN(C)C(=O)C(Cc1ncccn1)N(Cc1ccc(-c2ccncc2)cc1)C(=O)C=Cc1ccc(C(F)(F)F)cc1 (racemic) [Example 170]
14,137 nM,COCCN(C)C(=O)C(CN1CCN(C)CC1)N(Cc1ccc(-c2ccccn2)cc1)C(=O)C=Cc1ccc(C(F)(F)F)cc1 (racemic) [Example 278]
15,< 8 nM,COCCN(C)C(=O)C(CN1CCOCC1)N(Cc1ccc(-c2ccccn2)cc1)C(=O)C=Cc1ccc(C(F)(F)F)cc1 (racemic) [Example 279]
16,219 nM,COCCN(C)C(=O)C(CN1CCCC1)N(Cc1ccc(-c2ccccn2)cc1)C(=O)C=Cc1ccc(C(F)(F)F)cc1 (racemic) [Example 280]
17,448 nM,COCCN(C)C(=O)C(Cn1ccnc1)N(Cc1ccc(-c2ccccn2)cc1)C(=O)C=Cc1ccc(C(F)(F)F)cc1 (racemic) [Example 281]
18,35 nM,COCCN(C)C(=O)C(Cn1cccc1)N(Cc1ccc(-c2ccncc2)cc1)C(=O)C=Cc1ccc(C(F)(F)F)cc1 (racemic) [Example 282]

row,IC50,SMILES
1,324 nM,COCCN(C)C(=O)C(CN1C(=O)C(=O)c2ccccc21)N(Cc1ccc(-c2ccncc2)cc1)C(=O)C=Cc1ccc(C(F)(F)F)cc1 (racemic) [Example 283]
2,362 nM,COCCN(C)C(=O)C(CN1CCOC1=O)N(Cc1ccc(-c2ccncc2)cc1)C(=O)C=Cc1ccc(C(F)(F)F)cc1 (racemic) [Example 284]
3,3 nM,C[C@@H]1CC[C@H]2[C@@H](C)C(=O)O[C@@H]3O[C@@]4(C)CC[C@@H]1[C@]32OO4 [Artemisinin]
4,211 nM,"Cc1nn(C)c(C)c1C=CC(=O)N(Cc1ccc(N2CCOCC2)cc1)[C@@H](Cc1ccccc1)C(=O)N1CCC(N(C)C)CC1 [Example 1, (S)-N-[1-Benzyl-2-(4-dimethylamino-piperidin-1-yl)-2-oxo-ethyl]-N-(4-morpholin-4-yl-benzyl)-3-(1,3,5-trimethyl-1H-pyrazol-4-yl)-acrylamide]"
5,466 nM,"Cc1nc(C)c(C=CC(=O)N(Cc2ccc(N3CCOCC3)cc2)[C@@H](Cc2ccccc2)C(=O)N2CCC(N(C)C)CC2)s1 [Example 2, (S)-N-[1-Benzyl-2-(4-dimethylamino-piperidin-1-yl)-2-oxo-ethyl]-3-(2,4-dimethyl-thiazol-5-yl)-N-(4-morpholin-4-yl-benzyl)-acrylamide]"
6,436 nM,"Cc1noc(C)c1C=CC(=O)N(Cc1ccc(N2CCOCC2)cc1)[C@@H](Cc1ccccc1)C(=O)N1CCC(N(C)C)CC1 [Example 3, (S)-N-[1-Benzyl-2-(4-dimethylamino-piperidin-1-yl)-2-oxo-ethyl]-3-(3,5-dimethyl-isoxazol-4-yl)-N-(4-morpholin-4-yl-benzyl)-acrylamide]"
7,323 nM,"CN(C)C1CCN(C(=O)[C@H](Cc2ccccc2)N(Cc2ccc(N3CCOCC3)cc2)C(=O)C=Cc2ccc(C(F)(F)F)cn2)CC1 [Example 4, (S)-N-[1-Benzyl-2-(4-dimethylamino-piperidin-1-yl)-2-oxo-ethyl]-N-(4-morpholin-4-yl-benzyl)-3-(5-trifluoromethyl-pyridin-2-yl)-acrylamide]"
8,319 nM,"COc1ccc(C=CC(=O)N(Cc2ccc(N3CCOCC3)cc2)[C@@H](Cc2ccccc2)C(=O)N2CCC(N(C)C)CC2)cn1 [Example 5, (S)-N-[1-Benzyl-2-(4-dimethylamino-piperidin-1-yl)-2-oxo-ethyl]-3-(6-methoxy-pyridin-3-yl)-N-(4-morpholin-4-yl-benzyl)-acrylamide]"
9,54 nM,"CN(C)C1CCN(C(=O)[C@H](Cc2ccccc2)N(Cc2ccc(-c3ccccn3)cc2)C(=O)C=Cc2ccc(C(F)(F)F)cc2)CC1 [Example 6, (S)-N-[1-Benzyl-2-(4-dimethylamino-piperidin-1-yl)-2-oxo-ethyl]-N-(4-pyridin-2-yl-benzyl)-3-(4-trifluoromethyl-phenyl)-acrylamide]"
10,14 nM,"CN(C)C1CCN(C(=O)[C@H](Cc2ccccc2)N(Cc2ccc(-c3ccccn3)cc2)C(=O)C=Cc2ccc(C(F)(F)F)nc2)CC1 [Example 7, (S)-N-[1-Benzyl-2-(4-dimethylamino-piperidin-1-yl)-2-oxo-ethyl]-N-(4-pyridin-2-yl-benzyl)-3-(6-trifluoromethyl-pyridin-3-yl)-acrylamide]"
11,381 nM,"Cc1cc(C=CC(=O)N(Cc2ccc(-c3ccccn3)cc2)[C@@H](Cc2ccccc2)C(=O)N2CCC(N(C)C)CC2)n(C)n1 [Example 8, (S)-N-[1-Benzyl-2-(4-dimethylamino-piperidin-1-yl)-2-oxo-ethyl]-3-(2,5-dimethyl-2H-pyrazol-3-yl)-N-(4-pyridin-2-yl-benzyl)-acrylamide]"
12,69 nM,"Cc1nn(C)c(C)c1C=CC(=O)N(Cc1ccc(-c2ccccn2)cc1)[C@@H](Cc1ccccc1)C(=O)N1CCC(N(C)C)CC1 [Example 9, (S)-N-[1-Benzyl-2-(4-dimethylamino-piperidin-1-yl)-2-oxo-ethyl]-N-(4-pyridin-2-yl-benzyl)-3-(1,3,5-trimethyl-1H-pyrazol-4-yl)-acrylamide]"
13,176 nM,"Cc1nc(C)c(C=CC(=O)N(Cc2ccc(-c3ccccn3)cc2)[C@@H](Cc2ccccc2)C(=O)N2CCC(N(C)C)CC2)s1 [Example 10, (S)-N-[1-Benzyl-2-(4-dimethylamino-piperidin-1-yl)-2-oxo-ethyl]-3-(2,4-dimethyl-thiazol-5-yl)-N-(4-pyridin-2-yl-benzyl)-acrylamide]"
14,315 nM,"Cc1nc(C=CC(=O)N(Cc2ccc(-c3ccccn3)cc2)[C@@H](Cc2ccccc2)C(=O)N2CCC(N(C)C)CC2)cs1 [Example 11, (S)-N-[1-Benzyl-2-(4-dimethylamino-piperidin-1-yl)-2-oxo-ethyl]-3-(2-methyl-thiazol-4-yl)-N-(4-pyridin-2-yl-benzyl)-acrylamide]"
15,220 nM,"Cc1noc(C)c1C=CC(=O)N(Cc1ccc(-c2ccccn2)cc1)[C@@H](Cc1ccccc1)C(=O)N1CCC(N(C)C)CC1 [Example 12, (S)-N-[1-Benzyl-2-(4-dimethylamino-piperidin-1-yl)-2-oxo-ethyl]-3-(3,5-dimethyl-isoxazol-4-yl)-N-(4-pyridin-2-yl-benzyl)-acrylamide]"
16,355 nM,"Cc1nc(C=CC(=O)N(Cc2ccc(-c3ccccn3)cc2)[C@@H](Cc2ccccc2)C(=O)N2CCC(N(C)C)CC2)c(C)o1 [Example 13, (S)-N-[1-Benzyl-2-(4-dimethylamino-piperidin-1-yl)-2-oxo-ethyl]-3-(2,5-dimethyl-oxazol-4-yl)-N-(4-pyridin-2-yl-benzyl)-acrylamide]"
17,226 nM,"CN(C)C1CCN(C(=O)[C@H](Cc2ccccc2)N(Cc2ccc(-c3ccccn3)cc2)C(=O)C=Cc2ccc(Cl)nc2)CC1 [Example 14, (S)-N-[1-Benzyl-2-(4-dimethylamino-piperidin-1-yl)-2-oxo-ethyl]-3-(6-chloro-pyridin-3-yl)-N-(4-pyridin-2-yl-benzyl)-acrylamide]"

row,SMILES,IC50
1,O=C(NC1CN2CCC1CC2)[C@H](Cc1ccccc1)N(Cc1ccc(-c2ccccn2)cc1)C(=O)C=Cc1ccc(C(F)(F)F)cc1 (mixture of isomers) [Example 152],242 nM

# Same assay, conditions: Plasmodium falciparum, K1, read-out: IC50 (nM) on K1
row,SMILES,IC50
1,CCN(CC)CCCC(C)Nc1ccnc2cc(Cl)ccc12 (stereo not shown) [Chloroquine],194 nM
